Entries after “also recorded” stand apart in the source; their conditions may differ. Like-named read-outs stand apart in the source and are kept apart here.
How the values were obtained:
asthmatic mice = experiment: Airway resistance (Raw) response to methacholine in murine model of asthma; format: in vivo, Balb/cJ mice; conditions: for airway hyperresponsiveness / airway responsiveness to methacholine provocation (airway resistance, Raw): asthmatic mice; for airway hyperresponsiveness: methacholine challenge, chronic treatment 7 days, 20 mg/kg (metoprolol 3× daily s.c.; timolol in chow)
Description: Balb/cJ mice aged 6 weeks (Jackson Animal Laboratory, Bar Harbor, Maine) were housed under specific pathogen-free conditions and fed a chicken ovalbumin-free diet. The Animal Research Ethics Boards of both the University of Houston and the Baylor College of Medicine approved all experiments reported here. […] Mice were sensitized with subcutaneous injection of 25 μg of ovalbumin adsorbed to aluminum hydroxide on protocol days 2, 9, and 16. Subsequently, mice were given 50 μL of saline solution containing 25 μg of ovalbumin intranasally, on a daily basis, from protocol days 23 through 27. A group of ovalbumin-sensitized saline-challenged mice serves as controls for systemic sensitization and respiratory challenges with ovalbumin. Prior to intranasal administrations, mice were sedated with halothane vapor.
To examine the effects of duration of β-adrenergic ligand therapy on the phenotype of the murine model of asthma, the experimental drugs were administered either acutely or chronically to different groups of asthmatic mice.
Asthmatic mice on acute therapy were given a single intravenous bolus infusion of either β-adrenergic drug or normal saline on protocol day 28, 15 minutes before airway responsiveness to methacholine was determined. […] […] […] These concentrations were chosen based on those producing therapeutic effects in mice in previously published studies. The non-asthmatic mice were fed normal chow.
On protocol day 28, mice were anesthetized, tracheotomized, and connected to a computer-controlled small animal ventilator (Flexivent, Scientific Respiratory Equipment, Inc., Montreal, Canada). Airway resistance (Raw) was measured using the forced oscillation technique. The cellular composition of bronchoalveolar lavage fluid (BALF) was also determined.
To induce airway constriction, a solution containing 150 μg/mL of acetyl-α-methylcholine chloride (methacholine) (Sigma Chemical, St. Louis, Mo.) was infused intravenously at constant rates using a syringe infusion pump (Raze Scientific Instruments, Stanford, Conn.). […] Each methacholine dose was administered for 3 to 5 minutes, during which data were sampled at 1-minute intervals and then averaged.
The complex input impedance of the respiratory system was computed and the value of the real part of respiratory system impedance at 19.75 Hz was taken to reflect the magnitude of airway resistance (Raw). To examine the degree of airway responsiveness of each animal, the values for Raw as a function of methacholine doses were plotted. The largest value for Raw achieved in response to methacholine stimulation was referred to as Rawpeak. For mice that achieved a plateau in the methacholine dose-Raw response curve, the ED50 was calculated by linear interpolation using the GraphPad Prism4 (GraphPad Software, Inc.). […] The Bonferroni test was used to examine the statistical differences between experimental groups. The effects of acute drug treatments on baseline respiratory system mechanics were assessed using a two-tailed paired t-test. A value of P<0.05 was considered significant.
For these experiments, salbutamol was used for chronic administration at 0.5 mg/kg/day with a minipump and for acute administration at 0.15 mg/kg by i.v. bolus 15 minutes prior to challenge. Alprenolol was used at a high dose of 7200 ppm in chow or at a low dose of 720 ppm in chow. Carvedilol was used at a high dose of 2400 ppm in chow or at a low dose of 720 ppm in chow.
The airway resistance (Raw) is plotted as cm H2O ml^−1 s.

[1] = long-term administration; cited from earlier work
[2] = cited from earlier work
[3] = test system: antigen-induced bronchoconstriction; conditions: acute administration; cited from earlier work
β-adrenergic receptor = conditions: U.S. Pat. No. 6,284,800; cited from earlier work
[4] = test system: tracheas from asthmatic mice; conditions: asthmatic mice chronically treated; cited from earlier work
[5] = test system: sensitized and allergen-challenged mice; experiment: Aminophylline on acute airway effects of nadolol; format: in vivo; conditions: 100 mg/kg i.p. during methacholine infusion; untreated and nadolol-treated mice
Description: Mice were sensitized to the allergen ovalbumin as described in Example 1.
At time point 1 (time=−10 min) baseline airway resistance of the mice was determined. At time point 2 (time=−5 min) methacholine was infused into mice to reach their EC70.

[6] = cited from earlier work; remark: listed apart in the source
β2-adrenergic receptor = β2-adrenergic receptor (Mus musculus, UniProt P18762); format: in vivo, mice; conditions: for level of the β2-adrenergic receptor: chronic treatment; for Bmax (receptor density) / βmax (receptor density): lung membranes, mean±SEM, n=3-5; for Bmax (receptor density): drug treatment 15 Minutes; for βmax (receptor density): drug treatment 28 Days
Description: β2-adrenergic receptor numbers were measured in asthmatic mice as follows. […] Mice were sacrificed and lung membranes were isolated as follows. Frozen lung tissue was homogenized in an ice-cold buffer containing 0.32 M sucrose and 25 mM Tris (pH 7.4) using a polytron (Pro 200, Pro Scientific, Inc.). The homogenate was centrifuged at 1000×g for 10 min at 4° C. The resulting supernatant was centrifuged at 40,000×g for 20 min at 4° C. The pellet was suspended in an ice-cold 25 mM Tris-HCl buffer (pH 7.4) and centrifuged at 40,000'g for 20 min at 4° C. The final pellet was suspended in 200 μL of 25 mM Tris-HCl (pH 7.4); membrane protein concentration was determined by BCA protein assay kit. […] The incubation was done at 37° C. for 2 h and terminated by rapid vacuum filtration through glass fiber filters. The filters were washed three times with 250 μL of cold wash buffer (25 mM Tris-HCl, pH 7.4) and the radioactivity determined in a counter. […] Receptor densities are expressed as femtomoles of sites per milligram of protein. Bmax is determined by nonlinear regression of the saturation binding curves.

patients with CHF = conditions: cited from earlier work
[7] = in humans, in the presence of nadolol; cited from earlier work
[8] = healthy volunteers; after 9 d of treatment versus first treatment day; cited from earlier work
β2 = conditions: read-out: K1 values for β2 (first value); cited from earlier work
β3 = β3 (Homo sapiens, UniProt P13945); conditions: read-out: K1 values for β3; cited from earlier work
[9] = in vivo; cited from earlier work
[10] = acute: single intravenous bolus 15 minutes before methacholine
[11] = chronic administration, 28 days (in chow; salbutamol by osmotic minipump)

Chain of β2-adrenergic receptor (P18762 whole entry): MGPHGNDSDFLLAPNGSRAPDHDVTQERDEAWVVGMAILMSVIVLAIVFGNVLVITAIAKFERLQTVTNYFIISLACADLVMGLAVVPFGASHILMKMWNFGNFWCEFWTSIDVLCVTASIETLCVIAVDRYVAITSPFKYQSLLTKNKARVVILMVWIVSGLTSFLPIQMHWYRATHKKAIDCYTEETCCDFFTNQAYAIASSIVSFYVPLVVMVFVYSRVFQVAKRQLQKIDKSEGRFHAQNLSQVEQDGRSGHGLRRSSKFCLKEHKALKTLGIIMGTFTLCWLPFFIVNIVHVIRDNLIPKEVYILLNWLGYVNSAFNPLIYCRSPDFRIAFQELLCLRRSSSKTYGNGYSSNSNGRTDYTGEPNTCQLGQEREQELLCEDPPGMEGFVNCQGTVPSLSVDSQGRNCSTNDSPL
Chain of β3 (P13945 whole entry): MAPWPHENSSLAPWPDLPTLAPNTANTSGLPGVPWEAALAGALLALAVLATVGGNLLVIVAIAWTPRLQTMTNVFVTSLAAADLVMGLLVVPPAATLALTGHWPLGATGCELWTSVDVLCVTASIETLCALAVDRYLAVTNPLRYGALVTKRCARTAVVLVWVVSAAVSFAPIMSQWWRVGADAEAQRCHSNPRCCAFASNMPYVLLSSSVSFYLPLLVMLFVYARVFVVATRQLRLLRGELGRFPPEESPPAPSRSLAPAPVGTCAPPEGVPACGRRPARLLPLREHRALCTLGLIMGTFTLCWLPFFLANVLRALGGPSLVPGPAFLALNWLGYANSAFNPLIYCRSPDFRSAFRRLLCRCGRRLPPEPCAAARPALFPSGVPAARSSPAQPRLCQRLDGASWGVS

CC(C)(C)NC[C@H](O)COc1nsnc1N1CCOCC1 [timolol]
airway hyperresponsiveness (asthmatic mice): effective in reducing airway hyperresponsiveness

OCc1cc(C(O)CNCCCCCCOCCCCc2ccccc2)ccc1O (stereo not shown) [salmeterol]
trial outcome (death rates) [1]: stopped due to increased death rates | time in which the majority of a dose is eliminated, predominantly in the feces ([2]; in vivo): ≤ 72 h

CC(C)NC[C@@H](O)COc1cccc2ccccc12 [D-propranolol]
antigen-induced bronchoconstriction and airway hyperresponsiveness [3]: beneficial in inhibiting antigen-induced bronchoconstriction and reducing airway hyperresponsiveness | activity with respect to β-adrenergic receptors (β-adrenergic receptor): inactive

Cc1ccc(OCC(O)C(C)NC(C)C)c2c1CCC2 (stereo not shown) [ICI-118,551]
rank of effectiveness on contraction of excised tracheas in response to methacholine [4]: then ICI-118,551

Cn1c(=O)c2[nH]cnc2n(C)c1=O [aminophylline]
airway resistance after administration [5]: significant and sustained drop in airway resistance

C[C@@H]1C[C@H]2[C@@H]3C[C@H](F)C4=CC(=O)C=C[C@]4(C)[C@@]3(F)[C@@H](O)C[C@]2(C)[C@@]1(O)C(=O)SCF [fluticasone]
first-pass hepatic metabolism of the systemically absorbed drug ([6]; in vivo): almost complete

CC(C)(C)NCC(O)c1ccc(O)c(CO)c1 (stereo not shown) [Salbutamol, salbutamol]
Decreased Raw (asthmatic mice; 15 minutes of administration): yes | Decreased Raw (asthmatic mice; 2 days of administration): no | Decreased Raw (asthmatic mice; 28 days of administration): no | airway responsiveness to methacholine provocation (airway resistance, Raw) (asthmatic mice; [10]): reduced the level of airway responsiveness to methacholine provocation | airway responsiveness to methacholine provocation (airway resistance, Raw) (asthmatic mice; [11]): no protection was observed | Increased β2AR density (β2-adrenergic receptor; 15 minutes of administration): yes | Increased β2AR density (β2-adrenergic receptor; 2 days of administration): no | Increased β2AR density (β2-adrenergic receptor; 28 days of administration): no | level of the β2-adrenergic receptor (β2-adrenergic receptor): slight decrease | Bmax (receptor density) (β2-adrenergic receptor): 256.5 ± 29.24 femtomoles of sites per milligram of protein | βmax (receptor density) (β2-adrenergic receptor): 97.0 ± 23.02 femtomoles of sites per milligram of protein | bioavailability of inhaled drug ([2]; 10 patients with cystic fibrosis versus healthy adults): greater

CC(C)NC[C@H](O)COc1cccc2ccccc12 [L-form of propranolol, propranolol]
specific lung resistance [3]: increased specific lung resistance

C=CCc1ccccc1OCC(O)CNC(C)C (stereo not shown) [Alprenolol, alprenolol]
Decreased Raw (asthmatic mice; 15 minutes of administration): yes | Decreased Raw (asthmatic mice; 2 days of administration): no | Decreased Raw (asthmatic mice; 28 days of administration): no | airway responsiveness to methacholine provocation (airway resistance, Raw) (asthmatic mice; [10]): airway responsiveness was diminished | airway responsiveness to methacholine provocation (airway resistance, Raw) (asthmatic mice; [11]): does not reduce airway hyperresponsiveness; also recorded: provides no benefit upon chronic administration | Increased β2AR density (β2-adrenergic receptor; 15 minutes of administration): yes | Increased β2AR density (β2-adrenergic receptor; 2 days of administration): no | Increased β2AR density (β2-adrenergic receptor; 28 days of administration): no | level of the β2-adrenergic receptor (β2-adrenergic receptor): slight decrease | Bmax (receptor density) (β2-adrenergic receptor): 299.5 ± 12.19 femtomoles of sites per milligram of protein | βmax (receptor density) (β2-adrenergic receptor): 179.2 ± 53.05 femtomoles of sites per milligram of protein | rank of effectiveness on contraction of excised tracheas in response to methacholine [4]: most effective

CC(C)(Cc1c[nH]c2ccccc12)NCC(O)COc1ccccc1C#N (stereo not shown) [Bucindolol, bucindolol]
clinical outcome (mortality, benefit over placebo) (patients with CHF): failed to demonstrate any benefit over placebo

CC(C)(C)NCC(O)c1cc(O)cc(O)c1 (stereo not shown) [terbutaline]
increase of bioavailability by the oral component ([2]; from an MDI): 6.7% | absorption through the lung ([2]; healthy smokers versus healthy nonsmokers): more rapidly

CN[C@@H](C)[C@H](O)c1ccccc1 [ephedrine]
level of thermogenesis relative to the ephedrine-untreated level [7]: 40%

CCCC1O[C@@H]2C[C@H]3[C@@H]4CCC5=CC(=O)C=C[C@]5(C)[C@H]4[C@@H](O)C[C@]3(C)[C@]2(C(=O)CO)O1 (stereo partly shown) [budesonide]
plasma clearance of the 2 enantiomers per kilogram of bodyweight, higher in children than adults ([6]; 6 children with asthma versus 11 healthy adults): about 50% | plasma clearance relative to the average clearance of prednisolone ([6]; in vivo): about 10 fold | systemic availability of the swallowed fraction ([6]; in vivo): 10.7±4.3%

COCCc1ccc(OCC(O)CNC(C)C)cc1 (stereo not shown) [metoprolol]
airway hyperresponsiveness (asthmatic mice): effective in reducing airway hyperresponsiveness | clinical outcome (mortality, benefit over placebo) (patients with CHF): significant mortality reduction

O=S(=O)(Nc1ccc(CCNC[C@H](O)c2cccnc2)cc1)c1ccc(-c2nc(-c3ccc(C(F)(F)F)cc3)cs2)cc1 [L-796568]
acute increases in plasma fatty acid concentrations [8]: completely absent after 9 d of treatment

Cc1ccc(Cl)c(OCC(O)CNC(C)(C)C)c1 (stereo not shown) [bupranolol]
Ki (β2): 1.7 nM | Ki (β3): 50 nM | half-life [9]: 1.5 h
